Results reported in patent US4705799A, “Aminomethyl oxooxazolidinyl benzenes useful as antibacterial agents” (E. I. Du Pont de Nemours and Company, priority 1985, dated 1987).
Values after ≈ are worked out from the molar mass of the structure shown.

Experiments:
Escherichia coli [1] = experiment: In vitro broth dilution minimal inhibitory concentration (standard microdilution method); format: cell-based; details: Escherichia coli; Mueller-Hinton broth; 24-hour; read-out: Microdilution Broth MIC
Staphylococcus aureus [2] = experiment: In vivo efficacy of compounds administered subcutaneously in mouse intraperitoneal infections; details: sc, 168 h; mouse i.p. Staphylococcus aureus infection; subcutaneous; dosed at infection and 4 h post-infection; 7 days; read-out: ED50 (50 percent effective dose)
Experimental: (§1) Determinations of in vivo efficacy are performed by inoculating mice intraperitoneally with cultures of the infecting organism diluted to produce 90-100% mortality in control animals within twenty-four hours. The diluents used were trypticase soy broth for E. coli and 5% aqueous hog gastric mucin for Staphylococcus aureus infections. The compounds are dissolved or suspended in 0.25% aqueous Methocel® (Methocel®: Hydroxypropyl Methylcellulose E15 Premium, Dow Chemical Company) for oral administration or sterile distilled water containing 5% dimethylsulfoxide (Fisher Scientific Company, Fairlawn, N.J.) for subcutaneous administration. The mice are dosed at the time of infection and again at four hours post-infection. Mortality is recorded daily until test termination seven days post infection and the 50 percent effective dose, ED50, is calculated by the Reed-Muench method (Reed, L. G. and Muench, H., "A simple method of estimating fifty percent end points," American Journal of Hygiene, 27, 493-497 (1938).

Escherichia coli [3] = experiment: as above; details: sc, 168 h; mouse i.p. Escherichia coli infection; subcutaneous; dosed at infection and 4 h post-infection; 7 days; read-out: ED50 (50 percent effective dose)
Experimental: as §1

Staphylococcus aureus [4] = experiment: In vivo efficacy of orally administered compounds in mouse intraperitoneal infections; details: Staphylococcus aureus, po, 168 h, mouse i.p. Staphylococcus aureus infection; oral; dosed at infection and 4 h post-infection; 7 days; read-out: ED50 (50 percent effective dose)
Experimental: as §1

[5] = tested on: Staphylococcus epidermidis; experiment: In vitro broth dilution minimal inhibitory concentration (standard microdilution method); format: cell-based; details: 24 h, Mueller-Hinton broth, 24-hour, read-out: Microdilution Broth MIC
Escherichia coli [6] = experiment: In vivo efficacy of orally administered compounds in mouse intraperitoneal infections; details: 168 h; mouse i.p. Escherichia coli infection; oral; dosed at infection and 4 h post-infection; 7 days; read-out: ED50 (50 percent effective dose)
Experimental: as §1

Structure (SMILES)	MIC (Escherichia coli [1]) [µg/mL]	MIC [5] [µg/mL]	ED50 (Staphylococcus aureus [2]) [mg/kg]	ED50 (Escherichia coli [3]) [mg/kg]	ED50 (Staphylococcus aureus [4]) [mg/kg]	ED50 (Escherichia coli [6]) [mg/kg]
CC(C)(C)C(=O)NCC1CN(c2ccc(S(C)(=O)=O)cc2)C(=O)O1 (stereo not drawn) [Example 30]	> 200	200 (≈ 564 µM)	57.4	> 120	> 120	
COC(=O)NCC1CN(c2ccc(SC)cc2)C(=O)O1 (single isomer, unassigned) [Example 32, (l)-N-[3-[4-(methylthio)phenyl]-2-oxooxazolidin-5-ylmethyl]carbamic acid, methyl ester]	> 200	12.5 (≈ 42.2 µM)	< 4.4		3.5	70.9
COC(=O)NCC1CN(c2ccc(S(C)(=O)=O)cc2)C(=O)O1 (single isomer, unassigned) [Example 26, (l)-N-[3-[4-(Methylsulfonyl)phenyl]-2-oxooxazolidin-5-ylmethyl]carbamic acid, methyl ester]	100 (≈ 305 µM)	6.3 (≈ 19.2 µM)		40.7	1.7	56.2
CCCc1ccc(N2CC(CNC(C)=O)OC2=O)cc1 (stereo not drawn) [Example 136]	> 200	6.25 (≈ 22.6 µM)	< 4.4	100		100
CSCc1ccc(N2CC(CNC(C)=O)OC2=O)cc1 (single isomer, unassigned) [Example 163, (l)-N-[3-[4-(Methylthiomethyl)phenyl]-2-oxo-5-oxazolidinylmethyl]acetamide]	> 128	2 (≈ 6.79 µM)	3.2	33.3	5.4	
COC(=O)NCC1CN(c2ccc(Cl)cc2)C(=O)O1 (stereo not drawn) [Example 84]	> 128	> 128	80.5		79.2	> 120
C#Cc1ccc(N2CC(CNC(C)=O)OC2=O)cc1 (single isomer, unassigned) [Example 182, (l)-N-[3-(4-Ethynylphenyl)-2-oxo-5-oxazolidinylmethyl]acetamide]	> 128	16 (≈ 61.9 µM)	7	> 120	16	
CCOC(=O)NCC1CN(c2ccc(SC)cc2)C(=O)O1 (stereo not drawn) [Example 33]	> 200	50 (≈ 161 µM)	8.6		12.2	> 120
CSc1ccc(N2CC(CNC(C)=O)OC2=O)cc1 (single isomer, unassigned) [Example 31, (l)-N-[3-[4-(methylthio)phenyl]-2-oxooxazolidin-5-ylmethyl]acetamide]	> 200	3.9 (≈ 13.9 µM)	< 4.4		3.5	19.6
COC(=O)NCC1CN(c2ccc(SC(C)=O)cc2)C(=O)O1 (single isomer, unassigned) [Example 155]	> 200	> 200	< 4.4		3	82.2

Second part, led by results:

MIC (Escherichia coli [1]) [µg/mL]	MIC [5] [µg/mL]	Structure (SMILES)	ED50 (Staphylococcus aureus [2]) [mg/kg]	ED50 (Escherichia coli [3]) [mg/kg]	ED50 (Staphylococcus aureus [4]) [mg/kg]	ED50 (Escherichia coli [6]) [mg/kg]
200 (≈ 589 µM)	200 (≈ 589 µM)	CC(=O)NCC1CN(c2ccc(S(=O)(=O)N=[N+]=[N-])cc2)C(=O)O1 (single isomer, unassigned) [Example 114, (l)-N-[3-(4-Azidosulfonylphenyl)-2-oxooxazolidin-5-ylmethyl]acetamide]		12.5	15.3	10.5
> 128	4 (≈ 13.7 µM)	CC(=O)NCC1CN(c2ccc(C(C)=NO)cc2)C(=O)O1 (single isomer, unassigned) [Example 159, (l)-N-[3-(4-Acetylphenyl)-2-oxooxazolidin-5-ylmethyl]acetamide Oxime]	1.1	71.9	2.6	
> 128	4 (≈ 15.3 µM)	CC(=O)c1ccc(N2CC(CNC=O)OC2=O)cc1 (stereo not drawn) [Example 173]	4.5	79	6.9	
> 128	4 (≈ 14.4 µM)	CC(=O)c1ccc(N2CC(CNC(N)=O)OC2=O)cc1 (stereo not drawn) [Example 177]	2.8	34	3.7	
128 (≈ 403 µM)	4 (≈ 12.6 µM)	CC(=O)c1ccc(N2CC(CNC(=O)CN=[N+]=[N-])OC2=O)cc1 (stereo not drawn) [Example 175]	8.2	73.5	6.6	
